# Data published in patent publication EP3581565A1, “PHENYL BENZYL ETHER DERIVATIVE AND PREPARATION METHOD AND APPLICATION THEREOF” (Beijing Zhibo Bio-Medical Technology Co., Ltd., priority 2018, dated 2019).
# System: not listed separately
# Assay: logD of labeled ligands
# Type: physicochemical
row,logD,SMILES
1,[^125I]31a(logD = 3.96± 0.22),FCCOc1ccc(OCc2ccc([125I])cc2)cc1 [[^125I]31a]
2,[^125I]4 (logD = 4.00± 0.08),COc1ccc(OCc2ccc([125I])cc2)cc1 [[^125I]4]
3,[^18F]44a(logD = 3.05 ± 0.08),COc1ccc(OCc2ccc(OCC[18F])cc2)cc1 [[^18F]44a]
4,[^18F] 53a (logD= 3.65 ±0.04),COc1ccc(COc2ccc(OCC[18F])cc2)cc1 [[^18F] 53a]

# The next lines start with the compound.
row,SMILES,logD
1,COc1ccc(COc2ccc([125I])cc2)cc1 [[^125I]24],[^125I]24 (logD = 4.16± 0.29)
2,CN(C)c1ccc(OCc2ccc([125I])cc2)cc1 [[^125I]22],[^125I]22(logD = 2.89± 0.09)

# Molecular target: T1, Aβ1-42 aggregates (Homo sapiens, UniProt P05067)
# T1 construct: Preparing receptor Aβ1-42 proteins according to the existing method
# T1 sequence (P05067 672-713 limits assumed): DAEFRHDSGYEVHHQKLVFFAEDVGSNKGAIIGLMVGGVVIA
# Assay: In-vitro competitive binding experiment (Ki determination) with Aβ1-42 aggregates
# Description: 4, the compounds are separated after balancing, and the inhibition constant (Ki) is calculated by determining radioactivity.
# • (1) Preparing 41 of PBS (0.2M) buffer solution with pH=7.4; • (2) Preparing radioligand [^125I]
row,Ki [nM],SMILES
1,163 ± 23,"Brc1ccc(OCc2ccc(I)cc2)cn1 [Compound 57, 2-bromo-5-((4-iodobenzyl)oxy) pyridine]"
2,880 ± 72.4,"Clc1ccc(OCc2ccc(I)cc2)cn1 [Compound 55, 2-chloro-5-((4-iodobenzyl)oxy) pyridine]"
